The values that follow are results of earlier work, collected in patent publication US10874753B2, “Radiopharmaceutical conjugate of a metabolite and an EPR agent, for targeting tumour cells” (The South African Nuclear Energy Corporation Limited, priority 2014, dated 2020).

Molecules are shown by their SMILES.

For data set [1] the following is noted: binding of Ga by N4O2 chelator.
For data set [2], the target named is folate receptors (FR). The settings on record: binding to surface folate receptors (FR).

With `O=C(O)c1cccc(CNCCNCc2cccc(C(=O)O)n2)n1` [Cyclam H2dedpa, (1,2-bis{[[6-(carboxy)pyridine-2-yl]methyl]-amino}-ethane)], in data set [1], the stability constant is recorded as 28.1.

With `Nc1nc(=O)c2nc(CNc3ccc(C(=O)N[C@@H](CCC(=O)O)C(=O)O)cc3)cnc2[nH]1` [Folate], in data set [2], the Kd (usually a measure of binding affinity in units of concentration) was around 1 nM.
